Source: ChEMBL document CHEMBL5029167, “Development of Asialoglycoprotein-Mediated Hepatocyte-Targeting Antitumor Prodrugs Triggered by Glutathione” (J Med Chem, 2021)
Active and inactive are the calls of the source. No cut-off for these calls is given here.

Columns and labels:
H22 [1] = test: Antitumor activity against mouse H22 cells implanted in Kunming mouse assessed as tumor growth inhibition at 0.8 mg/kg measured on day 7; assay type: functional; design: scale not given: the % may be the effect or the level left; details: time 7 day
[2] = Toxicity in Kunming mouse implanted with mouse H22 cells assessed as change in organ weight at 0.8 mg/kg after 7 days; assay type: organism-based; details: in vivo, 168 h, time 7 day
[3] = Toxicity in Kunming mouse implanted with mouse H22 cells assessed as change in body weight at 0.8 mg/kg after 7 days; assay type: organism-based; details: in vivo, 168 h, time 7 day
[4] = Prodrug release at pH 6.5 assessed as stability after 48 hrs in absence of GSH by LC-MS analysis; assay type: ADME; details: pH 6.5, 48 h
[5] = Prodrug release at pH 7.4 assessed as stability after 48 hrs in absence of GSH by LC-MS analysis; assay type: ADME; details: pH 7.4, 48 h
[6] = Toxicity in Kunming mouse implanted with mouse H22 cells assessed as change in body weight at 10 mg/kg after 7 days; assay type: organism-based; details: in vivo, 168 h, time 7 day
H22 [7] = test: Antitumor activity against mouse H22 cells implanted in Kunming mouse assessed as tumor growth inhibition at 10 mg/kg measured on day 7 by H and E staining based histopathological analysis; assay type: functional, organism-based; details: time 7.0 day
[8] = Toxicity in Kunming mouse assessed as change in organ weight at 50 mg/kg; assay type: organism-based; details: in vivo
[9] = Drug uptake in human HepG2 cells pretreated with galactose for 30 mins followed by compound addition and measured after 15 mins by confocal scanning microscopic analysis; assay type: ADME, cell-based; details: hepg2, 0.75 h, time 45 min
[10] = Prodrug release at pH 6.5 assessed as stability after 120 mins in presence of GSH by LC-MS analysis; assay type: ADME; details: pH 6.5, 2 h
[11] = Drug uptake in human HepG2 cells at 10 uM after 15 mins by confocal scanning microscopic analysis; assay type: ADME, cell-based; details: hepg2, 0.25 h
[12] = Prodrug release assessed as stability after 24 hrs in presence of NADH by LC-MS analysis; assay type: ADME
[13] = Drug uptake in human A549 cells at 10 uM after 15 mins by confocal scanning microscopic analysis; assay type: ADME, cell-based; details: a549, 0.25 h
[14] = Toxicity in Kunming mouse assessed as change in body weight at 50 mg/kg; assay type: organism-based; details: in vivo
[15] = Drug distribution in Kunming mouse liver at 10 mg/kg, iv measured after 3 hrs by confocal scanning microscopic analysis; assay type: ADME, organism-based; details: in vivo
H22 [16] = test: Antitumor activity against mouse H22 cells implanted in Kunming mouse assessed as tumor growth inhibition at 10 mg/kg measured on day 7; assay type: functional; design: scale not given: the % may be the effect or the level left; details: time 7 day
[17] = Drug uptake in human HeLa cells at 10 uM after 15 mins by confocal scanning microscopic analysis; assay type: ADME, cell-based; details: 0.25 h
[18] = Toxicity in Kunming mouse implanted with mouse H22 cells assessed as change in organ weight at 10 mg/kg after 7 days; assay type: organism-based; details: in vivo, 168 h, time 7 day
[19] = Drug uptake in human SGC-7901 cells at 10 uM after 15 mins by confocal scanning microscopic analysis; assay type: ADME, cell-based; details: sgc-7901, 0.25 h
HepG2 = test: Cytotoxicity against human HepG2 cells at 10 to 80 uM after 24 hrs; assay type: cell-based; details: hepg2, 24 h, dose 10-80 µM
[20] = Drug distribution in Kunming mouse liver at 6 mg/kg, iv measured after 3 hrs by confocal scanning microscopic analysis; assay type: ADME, organism-based; details: in vivo

For `O=c1[nH]cc(F)c(=O)[nH]1` [FLUOROURACIL], the Activity (H22 [1]) was 26.41%, the Activity [2] was “Non-Toxic” and the Activity [3] was “Non-Toxic”.
In the case of `C=C[C@]1(C)CC[C@@H](C(=C)Cn2cc(CN3C(=O)c4cccc5c(N6CCN(C(=O)OCCSSCCOCC(=O)NC(COCc7cn([C@@H]8O[C@H](CO)[C@H](O)[C@H](O)[C@H]8O)nn7)(COCc7cn([C@@H]8O[C@H](CO)[C@H](O)[C@H](O)[C@H]8O)nn7)COCc7cn([C@@H]8O[C@H](CO)[C@H](O)[C@H](O)[C@H]8O)nn7)CC6)ccc(c45)C3=O)nn2)C[C@H]1C(=C)C`, the Stability [4] is reported as “Stable”, the Stability [5] is reported as “Stable” and the Activity [6] is reported as “Non-Toxic”. For the same molecule, the Activity (H22 [7]) was “Active”, the Activity [8] was “Non-Toxic” and the Drug uptake [9] was “Not Active”. The Stability [10] was “Unstable”, the Drug uptake [11] was “Active” and the Stability [12] was 98.9%. For the same molecule, the Drug uptake [13] was “Active”, the Activity [14] was “Non-Toxic” and the Drug uptake [15] was “Active”. The Activity (H22 [16]) was 51.22%, the Drug uptake [17] was “Active” and the Activity [18] was “Non-Toxic”. For the same molecule, the Drug uptake [19] was “Active” and the Activity (HepG2) was “Non-Toxic”.
In the case of `C=C[C@]1(C)CC[C@@H](C(=C)Cn2cc(CN3C(=O)c4cccc5c(N6CCN(C(=O)OCCSSCCOCc7cn([C@@H]8O[C@H](CO)[C@H](O)[C@H](O)[C@H]8O)nn7)CC6)ccc(c45)C3=O)nn2)C[C@H]1C(=C)C`, the Drug uptake [20] is reported as “Active”, the Drug uptake [9] is reported as “Not Active” and the Drug uptake [11] is reported as “Active”. The Drug uptake [13] was “Active”, the Drug uptake [17] was “Active” and the Drug uptake [19] was “Active”.
